7 molecules from patent US4421745A, “Antiepileptics” (Takeda Chemical Industries, Ltd., priority 1981, dated 1983) can be followed below.

One data set relates to Lennox's syndrome. The data set is described as follows: Clinical Case 3: DN-1417 treatment of epileptic patient. It counts as in vivo, human. As to the method: During the period from July 22 to Aug. 4, 1981, 1 mg of DN-1417 was administered intramuscularly once daily for 14 consecutive days, concomitantly with the antipileptics so far employed.
The test system of a further data set is West's syndrome. The data set is described as follows: Clinical Case 6: DN-1417 treatment of epileptic patient. Particulars: for Frequency of seizure occurrences: before DN-1417. The format is in vivo, human. As to the method: Nitrazepam in dosage of 1.5 mg./day was administered in three divided doses to show less frequency of the seizure occurrences (from 10 times a day to 6-7 times a day). […] The drowsiness was fairly ameliorated but the frequency of the seizure occurrences was not reduced (10 times a day).
DN-1417 in dosage of 0.03 mg./kg. (0.3 mg./day) was intravenously given for 22 days in addition to the treatment with nitrazepam in dosage of 0.6 mg./day.

Data set [1] has as its system epilepsy, tuberous sclerosis (tonic convulsion and atypical absence). The data set is described as follows: Clinical Case 2: DN-1417 treatment of epileptic patient. It counts as in vivo, human. Here is the method: In conjunction with the antiepileptic drugs so far used, DN-1417 was administered intramuscularly in doses of 0.5 mg. for 10 days and, then, in doses of 1 mg. for 4 days.

The next data set deals with temporal lobe epilepsy. The data set is described as follows: Clinical Case 5: DN-1417 treatment of epileptic patient. The format is in vivo, human. As to the method: In addition to the prior medication of antiepileptics (10 tablets of HYDANTOL F® each containing 25 mg. phenytoin, 8 mg. phenobarbital and 17 mg. caffeine and sodium benzoate, 1 g. of carbamazepine, 0.09 g. of phenobarbital and 250 mg. of actazolamide), DN-1417 was intramuscularly administered in dose of 1 mg./day for 2 weeks. […] From the 7th day of the DN-1417 treatment they began to explain their conditions as, "The time to get off the bed from awaking has been shortened." and "Became easy to get to the next action in doing anything."Improvement of such psychic symptoms was maintained for a week after the end of the DN-1417 treatment. Automatism occurred a week after the end of the DN-1417 treatment and impaired-consciousness seizure occurred twice in the 3rd week of post-treatment.

The subject of data set [2] is degenerative myoclonus epilepsy. The data set is described as follows: Clinical Case 1: DN-1417 treatment of epileptic patient. It counts as in vivo, human. As to the method:
They were given DN-1417, 2 mg. i.m. at 10:00 A.M. every day for 2 weeks concomitantly with the prior antiepileptics.

Data set [3] has as its system epilepsy (tonic convulsion, tonoclonic convulsion and clonic convulsion). Put plainly: Clinical Case 4: DN-1417 treatment of epileptic patient. The format is in vivo, human. As to the method: During the period from July 22 to Aug. 4, 1981, DN-1417 was administered intramuscularly in daily doses of 1 mg. for 14 days, together with the antiepileptics so far employed.

Data set [4] can be described thus: Blood concentrations of antiepileptics in Case 3. From the text: The treatment consisted of a multiple drug therapy using phenytoin, phenobarbital, sodium valproate, nitrazepam and clonazepam.

Turning to `NC(=O)[C@@H]1CCCN1C(=O)[C@H](Cc1c[nH]cn1)NC(=O)[C@@H]1CCC(=O)O1.O=C(O)CC(O)(CC(=O)O)C(=O)O` [DN-1417, (S)-γ-butyrolactone-γ-carbonyl-L-histidyl-L-prolinamide citrate], the Overall clinical effect entry with Lennox's syndrome was “decreased incidence of clinical episodes, improved EEG findings and remarkable improvements in daily life”; in the data set on West's syndrome it was “effective for West's syndrome”; in data set [1], “remarkable improvements in daily activity and improvements in clinical episode and EEG”; in the data set with temporal lobe epilepsy, “effective in this patient”; in data set [2] (2 mg i.m. daily for 2 weeks with prior antiepileptics) it was “effective in improving myoclonus, cerebellar symptoms, psychic activity and EEG”. For the same molecule, the Side effect entry in the data set with Lennox's syndrome is on record as “no side effect”; in data set [1], “no side effect”; in data set [2] (2 mg daily for 2 weeks), “without any side effect”; in data set [3], “no apparent side effect”. Also, the Clinical episodes entry in the data set on Lennox's syndrome (1 mg i.m. once daily for 14 days with prior antiepileptics, after one week) is “no clinical episode”; in the data set with Lennox's syndrome (after 2 weeks), “one episode of atypical absence”; with Lennox's syndrome (one week after withdrawal) it was “No clinical episode”; in data set [1] (after 2 weeks), “no clinical episodes”; in data set [1] (i.m. 0.5 mg for 10 days then 1 mg for 4 days with prior antiepileptics, after one week) it was “No clinical episodes”. Further, the EEG entry is “no polyspike-and-slow wave complex and only a decreased sharp-and-slow wave complex” in the data set on Lennox's syndrome (after 2 weeks); “decrease in polyspike-and-slow wave complex but an increase in sharp-and-slow wave complex” with Lennox's syndrome (after one week); “less bursts, with an increased regularity of basal wave” with Lennox's syndrome (one week after withdrawal); “did not show hypsarhythmia” in the data set with West's syndrome (2 weeks after the DN-1417 treatment); “remained unchanged” in the data set with West's syndrome (after a week); “frequency of paroxymal patterns was halved” in data set [1] (after 2 weeks, EEG at sleep). Further, the EEG entry in data set [2] (3rd day of treatment) is “No improvement”; in data set [3] (after 2 weeks), “fair improvement in continuity, with a regularity”; in data set [3] (after one week) it was “remarkable improvement”. Further, in the data set with West's syndrome (after a week), the Drowsiness result was “drowsiness due to nitrazepam was reduced”. The Seizure frequency in the data set on West's syndrome (from the 2nd week of treatment, same at the 3rd week) is 5-6 times a day. For the same molecule, the Side effects result in the data set with West's syndrome (whole course) is “No side effects”. Further, the EEG findings entry in the data set on temporal lobe epilepsy is on record as “No noteworthy change”. Moreover, in the data set with temporal lobe epilepsy (1 mg/day i.m. for 2 weeks with prior antiepileptics), the “Seizures during the treatment” value is on record as “autonomic seizure occurred once”. Also, the “Psychic symptoms such as decrease of volition” value in the data set with temporal lobe epilepsy (during DN-1417 treatment) was “improved”. Also, in data set [2], the “Time after withdrawal until photomyoclonic response reappeared” value is on record as “about 80 days”. Moreover, in data set [2], the “Type of action from EEG changes and clinical symptoms” value is given as “antimyoclonic action though not a definite anticonvulsive action”. Also, in data set [2] (2 mg daily for 2 weeks), the “Continuation of clinical improvement after withdrawal of the drug” value was “about 1 month”. In addition, the “Persistence of marked EEG improvements” value in data set [2] (after 2nd EEG at day 8 of treatment) is “about 50 days”. Also, the “EEG response to photic stimulation” value in data set [2] (day 8 of treatment) was “entirely normal”. The “Activities of daily life and mental condition (summary)” value in data set [3] is recorded as “A remarkable improvement”. For the same molecule, the “Clinical seizures (summary)” value in data set [3] is “No change or a slight improvement”. Besides, the “EEG (summary)” value in data set [3] was “A moderate improvement”. In addition, the Overall evaluation entry in data set [3] is reported as “moderate improvement”. Further, the Epileptic seizures entry in data set [3] (1 mg i.m. daily for 14 days with prior antiepileptics, after one week) is “No epileptic seizure”; in data set [3] (after 2 weeks), “No epileptic seizure”. Besides, in data set [3] (three weeks after withdrawal), the Seizures after withdrawal result is “Clonic convulsion appeared on day 6 after withdrawal”.
Turning to `O=C1CN=C(c2ccccc2)c2cc([N+](=O)[O-])ccc2N1` [Nitrazepam, nitrazepam, reference compound], in the data set on West's syndrome (nitrazepam 1.5 mg/day), the Adverse effects entry is “Severe drowsiness and stridor”. Further, the “Frequency of seizure occurrences” value with West's syndrome (nitrazepam 1.5 mg/day in three divided doses) is reported as 6-7 times a day; in the data set with West's syndrome (nitrazepam reduced to 0.6 mg/day), 10 times a day.
As to `O=C1CN=C(c2ccccc2Cl)c2cc([N+](=O)[O-])ccc2N1` [clonazepam, reference compound], in data set [2] (clonazepam 2 mg daily combined with other antiepileptics, before DN-1417), the Myoclonus at rest result is recorded as “almost complete disappearance”.
As to `CCC1(c2ccccc2)C(=O)NC(=O)NC1=O` [phenobarbital], the Blood concentration in data set [4] (Case 3, after 2 weeks of DN-1417 1 mg i.m. daily with the antiepileptics) turned out to be 24600 ng/mL; in data set [4] (Case 3, multiple drug therapy before DN-1417), 18900 ng/mL.
With `O=C1NC(=O)C(c2ccccc2)(c2ccccc2)N1` [phenytoin], the Blood concentration in data set [4] (in vivo) was 9000 ng/mL.
Regarding `CCCC(CCC)C(=O)[O-].[Na+]` [sodium valproate, reference compound], in data set [4] (in vivo), the Blood concentration was determined as 36000 ng/mL. The Convulsions entry in data set [2] (after about 3 months on sodium valproate, before DN-1417) is “convulsions were inhibited”. Also, in data set [2] (on sodium valproate, before DN-1417), the Myoclonus entry is reported as “remained prominent”.
For the molecule “ACTH: ACTH therapy; adrenocorticotropic hormones (SYSMEHFRWGKPVGKKRRPVKVYPNGAEDESAEAFPLEF; Corticotropin; UniProt P01189 138-176, looked up) [reference compound]”, in the data set on Lennox's syndrome (before DN-1417), the “Effect of ACTH therapy” value was “with no avail”.
